# Laboratory results taken from patent publication US20240307393A1, “PHARMACEUTICAL COMPOSITION FOR CANCER PREVENTION OR TREATMENT, COMPRISING CDK4/6 INHIBITOR AND TRICYCLIC ANTIDEPRESSANT” (priority 2021, published 2024).
# Assays:
# [1] = tested on: lung cancer cell line H460; assay: WST-1 cancer cell killing (cell survival) test in lung cancer cell line H460; type: cell-based; details: 48 hours; for Cell survival rate (%) Combined treatment with abemaciclib: antidepressant at Table 1 concentration combined with 4 μM abemaciclib; for Cell survival rate (%) Combined treatment with palbociclib: antidepressant at Table 1 concentration combined with 15 μM palbociclib; for Cell survival rate (%) Combined treatment with ribociclib: antidepressant at Table 1 concentration combined with 50 μM ribociclib; for Cell survival rate (%) Treatment with antidepressants alone: imipramine 100, clomipramine 40, desipramine 50, amitriptyline 45, imipramine blue 0.5 μM (Table 1)
# Experimental: (§2) This experiment was conducted on the lung cancer cell line H460, the colorectal cancer cell line HCT116, and the breast cancer cell line MCF7. […] The cell lines H460 and MCF7 were cultured using RPMI1640 medium containing 10% FBS and 1% penicillin-streptomycin, and the cell line HCT116 was cultured using McCoy's 5A medium containing 10% FBS and 1% penicillin-streptomycin.
# (§3) The cell lines H460, HCT116 and MCF7 were cultured at 3×10^3 cells/well in a 96 well plate. The next day, each drug was prepared at the concentrations shown in Tables 1 and 2, mixed with the medium, and then added to each well and left for 48 hours. After 48 hours, 10 ul/well of WST-1 reagent was added thereto and reacted for 1 hour. Samples reacted with WST-1 were analyzed by ELISA at 450 nM, and the same conditions were repeated three times to calculate the average value and standard error.
# [2] = tested on: colorectal cancer cell line HCT116; assay: WST-1 cancer cell killing (cell survival) test in colorectal cancer cell line HCT116; type: cell-based, human; details: 48 hours; for Cell survival rate (%) Combined treatment with abemaciclib: antidepressant at Table 1 concentration combined with 0.2 μM abemaciclib; for Cell survival rate (%) Combined treatment with palbociclib: antidepressant at Table 1 concentration combined with 5 μM palbociclib; for Cell survival rate (%) Combined treatment with ribociclib: antidepressant at Table 1 concentration combined with 20 μM ribociclib; for Cell survival rate (%) Treatment with antidepressants alone: imipramine 100, clomipramine 40, desipramine 20, amitriptyline 25, imipramine blue 0.4 μM (Table 1)
# Experimental: as §2, §3
# [3] = tested on: breast cancer cell line MCF7; assay: WST-1 cancer cell killing (cell survival) test in breast cancer cell line MCF7; type: cell-based; details: 48 hours; for Cell survival rate (%) Combined treatment with abemaciclib: antidepressant at Table 1 concentration combined with 10 μM abemaciclib; for Cell survival rate (%) Combined treatment with palbociclib: antidepressant at Table 1 concentration combined with 20 μM palbociclib; for Cell survival rate (%) Combined treatment with ribociclib: antidepressant at Table 1 concentration combined with 30 μM ribociclib; for Cell survival rate (%) Treatment with antidepressants alone: imipramine 50, clomipramine 20, desipramine 50, amitriptyline 50, imipramine blue 0.1 μM (Table 1)
# Experimental: This experiment was conducted on the lung cancer cell line H460, the colorectal cancer cell line HCT116, and the breast cancer cell line MCF7. As for the genetic characteristics of each cell line, the lung cancer cell line H460 has a KRAS mutation [p.Q61H], the colorectal cancer cell line HCT116 has a KRAS mutation [p.G13D], and the breast cancer cell line MCF7 has the characteristic of being positive for estrogen receptor and progesterone receptor but negative for HER2. The cell lines H460 and MCF7 were cultured using RPMI1640 medium containing 10% FBS and 1% penicillin-streptomycin, and the cell line HCT116 was cultured using McCoy's 5A medium containing 10% FBS and 1% penicillin-streptomycin.
# Specifically, abemaciclib, ribociclib and palbociclib were used as CDK4/6 inhibitors, and DMSO was used as a solvent to prepare the drug stock. […] Each drug was used after diluting to the concentrations shown in Table 1 (antidepressant concentration used (μM)) and Table 2 (CDK4/6 inhibitor concentration used (μM)) below.
# The cell lines H460, HCT116 and MCF7 were cultured at 3×10^3 cells/well in a 96 well plate. The next day, each drug was prepared at the concentrations shown in Tables 1 and 2, mixed with the medium, and then added to each well and left for 48 hours. After 48 hours, 10 ul/well of WST-1 reagent was added thereto and reacted for 1 hour. Samples reacted with WST-1 were analyzed by ELISA at […], and the same conditions were repeated three times to calculate the average value and standard error.
# [4] = Toxicity evaluation: body weight for 14 days; type: in vivo, nude mice (Balb/c nude); details: measured for 14 days; desipramine 20 mg/kg intraperitoneally, abemaciclib 30 mg/kg orally, once a day
# Experimental: (§1) Specifically, the human colorectal cancer cell line HCT116 was purchased from the American Type Culture Collection (ATCC, USA) and cultured in McCoy's 5A medium containing 10% fetal bovine serum (FBS) and penicillin-streptomycin under conditions of 37° C., 5% carbon dioxide and standard humidity.
# [5] = tested on: colorectal cancer cell line HCT116 subcutaneous tumor; assay: Tumor growth inhibition in HCT116 subcutaneous tumor model; type: in vivo, nude mice (Balb/c nude); set-up: reference not given here; details: HCT116 subcutaneous tumor in nude mice, desipramine 20 mg/kg intraperitoneally, abemaciclib 30 mg/kg orally, once a day
# Experimental: To evaluate the anti-tumor effect, the tumor size was measured every day until day 14 after treatment, and the differences between each group were analyzed. The tumor size was calculated as follows: V (mm^3)=1/2×long axis (mm)×short axis (mm)×height (mm). By day 14, the tumor size was measured, a tumor growth graph was created, and the tumor size between each group was compared and analyzed.
# [6] = Toxicity evaluation: hematoxylin and eosin histology of major normal organs; type: in vivo, nude mice (Balb/c nude); details: day 14; hematoxylin and eosin staining; desipramine 20 mg/kg intraperitoneally, abemaciclib 30 mg/kg orally, once a day
# Experimental: as §1
Compound,Cell survival rate (%) Combined treatment with abemaciclib [1],Cell survival rate (%) Combined treatment with palbociclib [1],Cell survival rate (%) Combined treatment with ribociclib [1],Cell survival rate (%) Treatment with antidepressants alone [1],Cell survival rate (%) Combined treatment with abemaciclib [2],Cell survival rate (%) Combined treatment with palbociclib [2],Cell survival rate (%) Combined treatment with ribociclib [2],Cell survival rate (%) Treatment with antidepressants alone [2],Cell survival rate (%) Combined treatment with abemaciclib [3],Cell survival rate (%) Combined treatment with palbociclib [3],Cell survival rate (%) Combined treatment with ribociclib [3],Cell survival rate (%) Treatment with antidepressants alone [3],also measured
CN(C)CCC=C1c2ccccc2CCc2ccccc21 [Amitriptyline],50%,58%,32%,65%,64%,54%,46%,86%,21%,45%,28%,63%,–
CN(C)CCCN1c2ccccc2CCc2ccc(Cl)cc21 [Clomipramine],20%,33%,34%,65%,32%,34%,23%,65%,37%,43%,56%,81%,–
CNCCCN1c2ccccc2CCc2ccccc21 [Desipramine],24%,14%,16%,40%,28%,44%,29%,71%,–,–,–,60%,"body weight difference between groups [4]: no significant difference in body weight; tumor size on day 14 [5]: 75.2%; histological changes of major organs (heart, lung, liver, spleen, kidney) compared to the control group [6]: no histological changes"
CCN(CC)c1ccc(C(c2ccc(N(CC)CC)cc2)=c2ccc3c(c2)CCc2ccccc2[N+]=3CCCN(C)C)cc1 [Imipramine blue],50%,36%,36%,62%,39%,43%,31%,53%,43%,59%,60%,88%,–
CN(C)CCCN1c2ccccc2CCc2ccccc21 [Imipramine],20%,53%,47%,–,58%,41%,39%,–,34%,53%,55%,–,–
CCN1CCN(Cc2ccc(Nc3ncc(F)c(-c4cc(F)c5nc(C)n(C(C)C)c5c4)n3)nc2)CC1 [abemaciclib],–,–,–,–,–,–,–,–,–,–,–,–,"body weight difference between groups [4]: no significant difference in body weight; lung cancer cell survival rate, abemaciclib alone ([1]; 4 μM abemaciclib alone, WST-1): 71%; tumor size on day 14 [5]: 54.6%; colorectal cancer cell survival rate, abemaciclib alone ([2]; 0.2 μM abemaciclib alone, WST-1): 87%; histological changes of major organs (heart, lung, liver, spleen, kidney) compared to the control group [6]: no histological changes; breast cancer cell survival rate, abemaciclib alone ([3]; 10 μM abemaciclib alone, WST-1): 59%"
CC(=O)c1c(C)c2cnc(Nc3ccc(N4CCNCC4)cn3)nc2n(C2CCCC2)c1=O [palbociclib],–,–,–,–,–,–,–,–,–,–,–,–,"lung cancer cell survival rate, palbociclib alone ([1]; 15 μM palbociclib alone, WST-1): 67%; colorectal cancer cell survival rate, palbociclib alone (HCT116 section) ([2]; 5 μM palbociclib alone, WST-1): 79%; breast cancer cell survival rate, palbociclib alone ([3]; 20 μM palbociclib alone, WST-1): 75%"
CN(C)C(=O)c1cc2cnc(Nc3ccc(N4CCNCC4)cn3)nc2n1C1CCCC1 [ribociclib],–,–,–,–,–,–,–,–,–,–,–,–,"lung cancer cell survival rate, ribociclib alone ([1]; 50 μM ribociclib alone, WST-1): 72%; colorectal cancer cell survival rate, ribociclib alone ([2]; 20 μM ribociclib alone, WST-1): 73%; breast cancer cell survival rate, ribociclib alone ([3]; 30 μM ribociclib alone, WST-1): 80%"
